According to patent publication US10239923B2, “Specific amyloid beta binding peptides and the use of same for treating and diagnosing alzheimer's dementia” (Forschungszentrum Juelich GmbH, priority 2015, dated 2019):
Square brackets hold non-standard residues; d marks the D form. Peptide text beside a SMILES is read from it.

Molecular target: T1, Aβ1-42 monomers versus Aβ1-42 oligomers and fibrils (biotinylated, D-enantiomeric, immobilized) (Homo sapiens, UniProt P05067)
T1 construct: biotinylated, D-enantiomeric Aβ1-42 monomers
T1 sequence (P05067 672-713): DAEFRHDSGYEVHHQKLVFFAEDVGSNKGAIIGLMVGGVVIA
Assay: Monoclonal phage ELISA
Format: binding
Text: The specificity of the peptide results from the difference in % of the absorption values for the target molecule or the bait (for example A beta monomer) and the normalized absorption values for the competitors (for example A beta oligomers and fibrils) in the monoclonal phage ELISA.
The absorption values then constitute the affinity of individual phage clones for a particular immobilized A beta species. Here, the specificity is not dependent on the strength of the affinity, but instead only on the difference of the affinities between the species. […] The terms “competitors” and “target molecule” or “bait” are defined as specified below.
A method for normalizing the obtained values should therefore be performed. From all absorption values of the individual phage clone in the monoclonal phage ELISA, the values of the phage antibodies tested for cross-reaction can be used as background. This occurs in accordance with the previously immobilized species. The signal values of the phage antibody from the reaction trays with immobilized Aβ1-42 oligomers for this purpose can be removed from the signal values of the individual phage clone from the reaction trays with immobilized Aβ1-42 oligomers. A similar process is then carried out for Aβ1-42 monomers. In this way, a possible background signal of the phage antibody can initially be calculated from the signals of the individual phage clone. […] Only in this way is an equal interpretation of the results particularly in respect of the assessment of the specificity of the individual phage clone possible (see FIG. 2).
The affinity of individual phage clones with respect to the target molecule and the competitors was examined by means of ELISA. For this purpose, all three species were immobilized in biotinylated form on a polystyrene surface at streptavidin bound thereon. Since, during the panning rounds, oligomers and fibrils were added at the same time as competitors, these two species were immobilized in the monoclonal phage ELISA, likewise mixed. […] The streptavidin-coated microtiter plates were pre-washed as specified by the manufacturer. […] For immobilization, 100 μl were used per reaction tray and were incubated for 15 minutes at room temperature. After having washed the entire plate(s) twice with 150 μl 1×TBS per reaction tray, a blocking step with 150 μl 1×TBS/0.1% (v/v) Tween-20/1% (w/v) BSA was performed for an hour at room temperature. Three washing steps with 150 μl 1×TBS/0.1% (v/v) Tween-20 then followed per reaction tray. The amplified individual phage clones were mixed 1:1 with 1× TBS/1% (w/v) BSA. The antibody 6E10 was diluted 1:10,000 in 1×TBS/0.1% (v/v) Tween-20. […] After washing five times with 150 μl 1×TBS/0.1% (v/v) Tween-20 per reaction tray, 200 μl 1×TBS/0.1% (v/v) Tween-20 were placed in each reaction tray, and the plate(s) incubated for one hour at room temperature. The solutions were removed and replaced as follows: In all reaction trays that had been incubated previously with individual phage clone dilutions or the batch without phages, 100 μl of a phage antibody diluted 1:5,000 in 1×TBS/0.1% (v/v) Tween-20 were now added. The enzyme horseradish peroxidase (HRP) was coupled to this antibody and later served for the conversion of a substrate (TMB). […] At the same time, 100 μl of a second antibody diluted 1:1,000 in 1×TBS/0.1% (v/v) Tween-20 were now added to all reaction trays that had been previously incubated with the dilution of the 6E10 antibody, said second antibody being able to identify and bind to the 6E10 antibody originating from mice. This antibody is also HRP-coupled and thus allows a quantification of the binding of the first antibody to the immobilized target molecules or the plastics surface of the reaction tray. After one hour of incubation at room temperature, the plate(s) was/were washed 10 times with 150 μl 1×TBS/0.1% (v/v) Tween-20 per reaction tray. The signal was detected by adding the substrate 3,3′,5,5′-tetramethylbenzidine (TMB). […]

CSCC[C@@H](NC(=O)[C@@H](Cc1c[nH]cn1)NC(=O)[C@@H](Cc1ccc(O)cc1)NC(=O)[C@@H](CO)NC(=O)[C@H](NC(=O)[C@@H](CC(C)C)NC(=O)[C@@H](Cc1ccc(O)cc1)NC(=O)[C@@H](CO)NC(=O)[C@H](N)Cc1ccc(O)cc1)[C@H](C)O)C(=O)N[C@@H](C(=O)N[C@H](Cc1c[nH]c2ccccc12)C(=O)N[C@H](CCCNC(=N)N)C(N)=O)C(C)C [Mosd1] (H-[dY][dS][dY][dL][dT][dS][dY][dH][dM][dV][dW][dR]-NH2)
absorption values (signal strength) for monomeric Aβ1-42 (individual phage clone, absorption at 450 nm): highest absorption values for monomeric Aβ1-42 of all tested clones | Difference in signal strength between Aβ1-42 monomers (100%) and Aβ1-42 oligomers and fibrils (individual phage clones, species immobilized at 320 nM, absorption at 450 nm normalized with 6E10 control, higher = more monomer-specific): 71.989% | binding preference for monomeric Aβ1-42 over Aβ1-42 oligomers and fibrils or plastics surface (normalized absorption values at 450 nm): greatest difference in the absorption values for monomeric Aβ1-42 and oligomeric or fibrillar Aβ1-42
